Assay [1] has as its system A431 cells / TMD8 cells. Description: Proliferation inhibitory activity against cell lines expressing BTK and EGFR (in vitro), comparison of selectivity. Type of assay: cell-based, human. Particulars: ratio from GI50 (nM), 3 days culture, CELLTITER GLO. From the text:
TMD8 cells, which are of a diffuse large B-cell lymphoma cell line expressing BTK, were suspended in RPMI1640 medium (manufactured by Life Technologies Corp.) containing 10% fetal bovine serum. A431 cells, which are of an EGFR-overexpressing, highly activated human epidermoid carcinoma cell line, were suspended in DMEM, high glucose medium (manufactured by Life Technologies Corp.) containing 10% fetal bovine serum. The cell suspensions were inoculated into each well of 384-well flat-bottomed microplates, and the cells were cultured for 1 day at 37° C. in an incubator containing 5% carbon dioxide gas. […] A DMSO solution of the test compounds was diluted with the medium used in the suspension of the each cells, and this was added to each of the wells of the cell culture plates such that the final concentration of DMSO would be 0.2%. The cells were further cultured for 3 days at 37° C. in an incubator containing 5% carbon dioxide gas. […] Proliferation inhibition ratio (%)=(C−T)/(C−C0)×100
T: Luminescence intensity of a well in which the test compound was added
C: Luminescence intensity of a well in which the test compound was not added
C0: Luminescence intensity of a well measured before the addition of the test compound
When a comparison is made between the cell proliferation inhibitory activity against A431 cells that depends on the EGFR proliferation signaling and the cell proliferation inhibitory activity against TMD8 cells that depends on the BTK proliferation signaling, the influence of the respective kinases at a cellular level is able to be evaluated. That is, when the “A431 cell proliferation inhibition ratio/TMD8 cell proliferation inhibition ratio” is calculated, it is contemplated that as the value of the ratio is larger, the selectivity to BTK over EGFR in the cells is higher.
On the technique in general: In ATP-based viability assays light output follows the ATP content of the culture.

Assay [2] relates to purified recombinant human EGFR protein / BTK. Description: BTK inhibition selectivity compared with EGFR kinase inhibitory activity (in vitro). Type of assay: biochemical. Particulars: EGFR assay ATP 1.5 μM. How it is done: 1) Measurement of BTK Inhibitory Activity
2) Measurement of EGFR Inhibitory Activity
Therefore, a biotinated peptide (biotin-[…]) was produced by referring to the amino acid sequence of the peptide. The purified recombinant human EGFR protein used in the test was purchased from Carna Biosciences, Inc.
With regard to the measurement of the inhibitory activity of the compounds, firstly, the compounds of the present invention were diluted stepwise with dimethyl sulfoxide (DMSO). […] The reaction was terminated by adding EDTA thereto in order to obtain a final concentration of 24 mM. Subsequently, a detection liquid containing Eu-labeled anti-phosphorylated tyrosine antibody PT66 (PerkinElmer, Inc.) and […] APC-SA (PerkinElmer, Inc.) was added thereto, and the system was left to stand for 2 hours or longer at room temperature.
3) BTK Inhibition Selectivity

In assay [3] the target is purified recombinant human BTK protein (Homo sapiens (Human), UniProt Q06187). Description: Measurement of BTK inhibitory activity (in vitro). Type of assay: biochemical. Conditions: FL-PEPTIDE 2 substrate 1 μM, ATP 45 μM, 40 minutes at 25° C. An excerpt:
With regard to the setting of the conditions for a method for measuring the inhibitory activity of a compound against BTK kinase activity in vitro, it is described in the consumable reagent supplies price list for LabChip (registered trademark) series of PerkinElmer, Inc. that FL-PEPTIDE 2 corresponds to a substrate peptide for the measurement of BTK kinase activity. Therefore, FL-PEPTIDE 2 was used as a substrate. The purified recombinant human BTK protein used in the test was purchased from Carna Biosciences, Inc.
With regard to the measurement of the inhibitory activity of the compounds, firstly, the compounds of the present invention were diluted stepwise with dimethyl sulfoxide (DMSO). Subsequently, BTK protein, a substrate peptide (final concentration was 1 μM), magnesium chloride (final concentration was 10 mM), ATP (final concentration was 45 μM), and a DMSO solution of the compounds of the present invention (final concentration of DMSO was 5%) were added to a buffer solution for kinase reaction (20 mM HEPES (pH 7.5), 2 mM dithiotheitol, 0.01% Triton X-100), and after the solution was incubated for 40 minutes at 25° C., a kinase reaction was carried out. The reaction was terminated by adding EDTA thereto in order to obtain a final concentration of 30 mM. Finally, a substrate peptide that was not phosphorylated (S) and a phosphorylated peptide (P) were separated and detected by microchannel capillary electrophoresis using a LabChip EZ Reader II (PerkinElmer, Inc.).

purified recombinant human BTK protein, sequence (Q06187 whole entry): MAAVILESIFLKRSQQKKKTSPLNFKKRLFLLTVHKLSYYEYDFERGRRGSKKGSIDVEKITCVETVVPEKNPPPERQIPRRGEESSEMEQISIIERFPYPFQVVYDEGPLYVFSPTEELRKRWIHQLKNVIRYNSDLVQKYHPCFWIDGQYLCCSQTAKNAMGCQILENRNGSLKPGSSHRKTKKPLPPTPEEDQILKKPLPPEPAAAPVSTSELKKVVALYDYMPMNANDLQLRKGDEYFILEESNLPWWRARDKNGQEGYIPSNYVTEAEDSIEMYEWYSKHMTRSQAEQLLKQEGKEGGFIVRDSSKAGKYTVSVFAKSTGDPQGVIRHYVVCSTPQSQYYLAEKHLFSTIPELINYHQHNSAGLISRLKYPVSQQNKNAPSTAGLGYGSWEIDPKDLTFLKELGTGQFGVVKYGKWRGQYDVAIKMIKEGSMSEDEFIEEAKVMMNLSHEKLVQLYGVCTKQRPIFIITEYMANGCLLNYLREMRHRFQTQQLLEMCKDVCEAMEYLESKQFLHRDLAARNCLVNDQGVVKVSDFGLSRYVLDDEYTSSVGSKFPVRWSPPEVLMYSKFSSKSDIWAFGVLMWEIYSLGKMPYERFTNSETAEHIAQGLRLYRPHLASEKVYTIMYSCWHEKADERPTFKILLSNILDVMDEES

Regarding `CCN(CC)C/C=C/C(=O)N1CC[C@@H](n2nc(C(=O)Nc3nc4cc(Cl)ccc4o3)c3c(N)ncnc32)C1` [Example 34, (R,E)-4-amino-N-(5-chlorobenzo[d]oxazol-2-yl)-1-(1-(4-(diethylamino)but-2-enoyl)pyrrolidin-3-yl)-1H-pyrazolo[3,4-d]pyrimidine-3-carboxamide], the “A431 cell proliferation inhibition ratio/TMD8 cell proliferation inhibitio ratio” value in assay [1] is listed as greater than 22471.9. Moreover, the “EGFR inhibitory activity IC50 value (nM)/BTK inhibitory activity IC50 value (nM)” value (from here on “EGFR inhibitory activity IC50 value”) in assay [2] was found to be 79.3. The IC50 (commonly the midpoint of a concentration-inhibition curve) in assay [3] is 0.79 nM.
As to `C=CC(=O)N1CCC(n2nc(C(=O)Nc3nc4ccccc4o3)c3c(N)ncnc32)C1` (centres unmarked) [Example 82, 1-(1-acryloylpyrrolidin-3-yl)-4-amino-N-(benzo[d]oxazol-2-yl)-1H-pyrazolo[3,4-d]pyrimidine-3-carboxamide], the “A431 cell proliferation inhibition ratio/TMD8 cell proliferation inhibitio ratio” value in assay [1] was found to be 8143.0. Further, the “EGFR inhibitory activity IC50 value” value in assay [2] is reported as 10.9.
In the case of `Nc1ncnc2c1c(C(=O)Nc1nc3cc(Cl)ccc3o1)nn2[C@@H]1CCCN(C(=O)/C=C/CN2CCCCC2)C1` [Example 20, (R,E)-4-amino-N-(5-chlorobenzo[d]oxazol-2-yl)-1-(1-(4-(piperidin-1-yl)but-2-enoyl)piperidin-3-yl)-1H-pyrazolo[3,4-d]pyrimidine-3-carboxamide], the “A431 cell proliferation inhibition ratio/TMD8 cell proliferation inhibitio ratio” value in assay [1] is recorded as greater than 19120.5. For the same molecule, the “EGFR inhibitory activity IC50 value” value in assay [2] is reported as 138.2. Further, in assay [3], the IC50 was found to be 0.801 nM.
The like results for `C=CC(=O)N[C@H]1CC[C@H](n2nc(C(=O)Nc3nc4ccccc4o3)c3c(N)ncnc32)CC1` [Example 72, 1-((1R,4R)-4-acrylamidocyclohexyl)-4-amino-N-(benzo[d]oxazol-2-yl)-1H-pyrazolo[3,4-d]pyrimidine-3-carboxamide] were, in that order, greater than 2802.7, 12.4 and 28.1 nM.
`C=CC(=O)N1CCC(Cn2nc(C(=O)Nc3nc4cc(Cl)ccc4o3)c3c(N)ncnc32)CC1` [Example 80, 1-((1-acryloylpiperidin-4-yl)methyl)-4-amino-N-(5-chlorobenzo[d]oxazol-2-yl)-1H-pyrazolo[3,4-d]pyrimidine-3-carboxamide]: in assay [1], the “A431 cell proliferation inhibition ratio/TMD8 cell proliferation inhibitio ratio” value is on record as 14348.9. Besides, in assay [2], the “EGFR inhibitory activity IC50 value” value is given as 75.4.
On the same counts, the results for `C=CC(=O)N[C@H]1CC[C@@H](n2nc(C(=O)Nc3nc4cc(Cl)ccc4o3)c3c(N)ncnc32)CC1` [Example 78, 1-((1S,4S)-4-acrylamidocyclohexyl)-4-amino-N-(5-chlorobenzo[d]oxazol-2-yl)-1H-pyrazolo[3,4-d]pyrimidine-3-carboxamide] are greater than 23596.7 and 100.7.
The like results for `C=CC(=O)N[C@H]1CC[C@@H](n2nc(C(=O)Nc3nc4cc(F)ccc4o3)c3c(N)ncnc32)CC1` [Example 81, 1-((1S,4S)-4-acrylamidocyclohexyl)-4-amino-N-(5-fluorobenzo[d]oxazol-2-yl)-1H-pyrazolo[3,4-d]pyrimidine-3-carboxamide] were, in that order, 8346.7 and 204.9.
On the same counts, the results for `C=CC(=O)N1CCC(n2nc(C(=O)Nc3nc4cc(F)ccc4o3)c3c(N)ncnc32)C1` (centres unmarked) [Example 83, 1-(1-acryloylpyrrolidin-3-yl)-4-amino-N-(5-fluorobenzo[d]oxazol-2-yl)-1H-pyrazolo[3,4-d]pyrimidine-3-carboxamide] are greater than 18797.0 and 39.6.
On to `C=CC(=O)N1CC(Cn2nc(C(=O)Nc3nc4cc(F)ccc4o3)c3c(N)ncnc32)C1` [Example 75, 1-((1-acryloylazetidin-3-yl)methyl)-4-amino-N-(5-fluorobenzo[d]oxazol-2-yl)-1H-pyrazolo[3,4-d]pyrimidine-3-carboxamide], for which the “A431 cell proliferation inhibition ratio/TMD8 cell proliferation inhibitio ratio” value in assay [1] is greater than 1643.7. Further, the “EGFR inhibitory activity IC50 value” value in assay [2] is listed as 58.2.
On the same counts, the results for `C=CC(=O)N1CCC(Cn2nc(C(=O)Nc3nc4cc(F)ccc4o3)c3c(N)ncnc32)CC1` [Example 77, 1-((1-acryloylpiperidin-4-yl)methyl)-4-amino-N-(5-fluorobenzo[d]oxazol-2-yl)-1H-pyrazolo[3,4-d]pyrimidine-3-carboxamide] are greater than 6793.5 and 203.7.
On to `Nc1ncnc2c1c(C(=O)Nc1nc3cc(Cl)ccc3o1)nn2[C@@H]1CCN(C(=O)/C=C/CN2CCCC2)C1` [Example 36, (R,E)-4-amino-N-(5-chlorobenzo[d]oxazol-2-yl)-1-(1-(4-(pyrrolidin-1-yl)but-2-enoyl)pyrrolidin-3-yl)-1H-pyrazolo[3,4-d]pyrimidine-3-carboxamide], for which the “EGFR inhibitory activity IC50 value” value in assay [2] turned out to be 59.8. Besides, in assay [3], the IC50 amounted to 0.867 nM.
Take `CN(C)C/C=C/C(=O)N1CC[C@@H](n2cc(C(=O)Nc3nc4cc(-c5ccccc5)ccc4o3)c3c(N)ncnc32)C1` [Example 56, (R,E)-4-amino-N-(5-phenylbenzo[d]oxazol-2-yl)-7-(1-(4-(dimethylamino)but-2-enoyl)pyrrolidin-3-yl) 7H-pyrrolo[2,3-d]pyrimidine-5-carboxamide]: the “EGFR inhibitory activity IC50 value” value in assay [2] was determined as 17.6. Also, in assay [3], the IC50 amounted to 1.34 nM.
On the same counts, the results for `CCN(C)C/C=C/C(=O)N1CC[C@@H](n2cc(C(=O)Nc3nc4cc(-c5ccccc5)ccc4o3)c3c(N)ncnc32)C1` [Example 57, (R,E)-4-amino-N-(5-phenylbenzo[d]oxazol-2-yl)-7-(1-(4-(ethyl(methyl)amino)but-2-enoyl)pyrrolidin-3-yl) 7H-pyrrolo[2,3-d]pyrimidine-5-carboxamide] are 19.3 and 1.51 nM.
The like results for “(E)-4-amino-N-(5-chlorobenzo[d]oxazol-2-yl)-7-(1-(4-(dimethylamino)but-2-enoyl)azetidin-3-yl) 7H-pyrrolo[2,3-d]pyrimidine-5-carboxamide [Example 47]” were, in that order, 20.4 and 7.34 nM.
On the same counts, the results for `Nc1ncnc2c1c(C(=O)Nc1nc3cc(-c4ccccc4)ccc3o1)cn2[C@@H]1CCN(C(=O)/C=C/CN2CCCC2)C1` [Example 60, (R,E)-4-amino-N-(5-phenylbenzo[d]oxazol-2-yl)-7-(1-(4-(pyrrolidin-1-yl)but-2-enoyl)pyrrolidin-3-yl) 7H-pyrrolo[2,3-d]pyrimidine-5-carboxamide] are 32.4 and 1.88 nM.
Regarding `C=CC(=O)N1CC(Cn2nc(C(=O)Nc3nc4cc(Cl)ccc4o3)c3c(N)ncnc32)C1` [Example 76, 1-((1-acryloylazetidin-3-yl)methyl)-4-amino-N-(5-chlorobenzo[d]oxazol-2-yl)-1H-pyrazolo[3,4-d]pyrimidine-3-carboxamide], in assay [1], the “A431 cell proliferation inhibition ratio/TMD8 cell proliferation inhibitio ratio” value is recorded as greater than 2345.8. Further, the “EGFR inhibitory activity IC50 value” value in assay [2] came out at 11.4.

The record behind these values is US9580432B2, “Fused pyrimidine compound or salt thereof” (TAIHO PHARMACEUTICAL CO., LTD., priority 2013, dated 2017).
